Values of other authors, collected in patent US9624258B2, “Polymorph of regadenoson” (Biophore India Pharmaceuticals PVT. Ltd., priority 2013, dated 2017).

Assays:
[1] = background statement
A2A adenosine receptor = A2A adenosine receptor (Homo sapiens, UniProt P29274); conditions: background statement on compound of U.S. Pat. No. 6,403,567
Sequence of A2A adenosine receptor (P29274 whole entry): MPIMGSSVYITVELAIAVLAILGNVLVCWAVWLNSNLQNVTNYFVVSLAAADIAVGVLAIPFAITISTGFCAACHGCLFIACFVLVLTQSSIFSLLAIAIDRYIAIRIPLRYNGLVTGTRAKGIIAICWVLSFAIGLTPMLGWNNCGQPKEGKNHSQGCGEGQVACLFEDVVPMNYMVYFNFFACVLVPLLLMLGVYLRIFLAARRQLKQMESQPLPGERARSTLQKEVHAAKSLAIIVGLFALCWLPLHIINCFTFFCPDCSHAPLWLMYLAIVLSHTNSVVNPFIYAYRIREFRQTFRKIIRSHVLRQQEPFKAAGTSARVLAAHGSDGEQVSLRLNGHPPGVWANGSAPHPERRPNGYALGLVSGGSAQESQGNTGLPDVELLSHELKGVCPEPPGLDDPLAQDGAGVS

Structure (SMILES): CNC(=O)c1cnn(-c2nc(N)c3ncn([C@@H]4O[C@H](CO)[C@@H](O)[C@H]4O)c3n2)c1 [Regadenoson, (1-{9-[(4S,2R,3R,5R)-3,4-dihydroxy-5-(hydroxymethyl)oxolan-2-yl)-6-aminopurin-2-yl}pyrazole-4-yl)-N-methylcarboxamide]
- biological half-life [1]: 2- to 3 minute
- A2A adenosine receptor agonist selectivity (A2A adenosine receptor): highly selective A2A adenosine receptor agonist
